This passage reports EC50 and maximal fold induction results from patent publication US8110681B2, “Compounds for the treatment of spinal muscular atrophy and other uses” (The United States of America as represented by the …, priority 2006, dated 2012).

Read-outs that look alike come from different tables or passages of the source.

The term EC50 denotes the midpoint of the concentration-response curve. A lower EC50 goes with a more potent agent.

In this assay the test system is SMN2-linked luciferase-reporter gene construct. Briefly: SMN splice reporter assay (SMN2-linked luciferase reporter, Example 10). In kind it is cell-based. The note with it: for maximal fold induction: read-out: SMN Splice Reporter Assay (Example 10) Avg MaxFold Increase. The procedure, abridged: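 Values are fold-increase in luciferase signal relative to baseline cells without compound. The cervical carcinoma line used holds a fusion of alternatively spliced SMN2 sequence and luciferase. Readable frame, and thus signal, arises only with exon 7-including splicing.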
In general terms: In a reporter assay the amount or activity of a reporter protein is the signal.

Where [1] appears, read: SMN2-linked luciferase reporter, average.
Where [2] appears, read: maximum fold increase of reporter signal, average.
The mark [3] stands for this setting: SMN2-linked luciferase reporter, average maximum fold increase.

Compound `CC(C(=O)O)c1ccc(N2Cc3ccc(OCC(F)(F)F)cc3C2=O)cc1` (centres unmarked) [ALB-113966] showed an EC50 under setting [1] of 663 nM. Under setting [2], the maximal fold induction stood at 1.78.

`CC(CO)c1ccc(N2Cc3ccccc3C2=O)cc1` (centres unmarked) [ALB-113309] had an EC50 under setting [1] of 144 nM. For the same compound, under setting [2], the maximal fold induction was found to be 1.19.

Under setting [1], `CC(C(=O)O)c1ccc(N2Cc3c(cccc3-c3ccc(Cl)c(Cl)c3)C2=O)cc1` (centres unmarked) [ALB-112226] came in with an EC50 of 26200 nM. Besides, under setting [2], the maximal fold induction was 1.44.

`CC(C)OCc1ccc2c(c1)C(=O)N(c1ccc(C(C)C(=O)O)cc1)C2` (centres unmarked) [ALB-114741]: the maximal fold induction under setting [2] came out at 1.67.

On to `CC(C(=O)OC(C)(C)C)c1ccc(N2Cc3ccccc3C2=O)cc1-c1cccnc1` (centres unmarked) [ALB-112173], for which the maximal fold induction under setting [2] turned out to be 1.

For `CCOc1ccc2c(c1)C(=O)N(c1ccc(C(C)C(=O)OC(C)(C)C)cc1)C2` (centres unmarked) [ALB-113101], the EC50 under setting [1] is 242 nM. For the same compound, the maximal fold induction under setting [2] was 1.38.

For the compound `CC(C(=O)OC(C)(C)C)c1ccc(N2Cc3ccccc3C2=O)c(-c2cccs2)c1` (centres unmarked) [ALB-112196], the maximal fold induction under setting [2] worked out at 1.09.

For the compound `CC(C(=O)OC(C)(C)C)c1ccc(N2Cc3cccc([N+](=O)[O-])c3C2=O)cc1` (centres unmarked) [ALB-111951], the maximal fold induction under setting [2] was found to be 1.2.

`COC(=O)C(C)c1ccc(N2Cc3ccccc3C2)cc1` (centres unmarked) [ALB-112192] had an EC50 under setting [1] of 5720 nM. Besides, under setting [2], the maximal fold induction was found to be 1.41.

Take `COc1ccc2c(c1)C(=O)N(c1ccc(C3CCCC3)cc1)C2` [ALB-115422]: the EC50 under setting [1] came out at 399 nM. Besides, the maximal fold induction under setting [2] worked out at 1.27.

Under setting [1], `CC(C)(C(=O)O)c1ccc(N2Cc3ccccc3C2=O)cc1` [ALB-111796] displayed an EC50 of 3520 nM. Also, the maximal fold induction under setting [2] is 1.22.

The compound `C=Cc1ccc2c(c1)CN(c1ccc(C(C)C(=O)O)cc1)C2=O` (centres unmarked) [ALB-113390] registered an EC50 under setting [1] of 10400 nM. In addition, under setting [2], the maximal fold induction worked out at 1.29.

Take `COc1ccc2c(c1)CN(c1ccc(C(C)C(=O)O)cc1)C2=O` (centres unmarked) [ALB-111959]: the EC50 under setting [1] amounted to 451 nM. Further, the maximal fold induction under setting [2] was found to be 1.26.

Turning to `COc1ccc2c(c1)CN(c1ccc(C(C)C(=O)OC(C)(C)C)cc1)C2=O` (centres unmarked) [ALB-111893], the maximal fold induction under setting [2] is 1.09.

As to `CC(C(=O)NS(=O)(=O)C(C)C)c1ccc(N2Cc3ccccc3C2=O)cc1` (centres unmarked) [ALB-111856], the EC50 under setting [1] stood at 568 nM. In addition, under setting [2], the maximal fold induction is 1.14.

Regarding `CC(C)c1ccc(N2Cc3ccc4c(c3C2=O)OCCO4)cc1` [ALB-118160], under setting [1], it took 46 nM to reach a half-maximal effect (EC50). Moreover, the maximal fold induction under setting [3] is 1.43.

In the case of `CC(C(=O)NS(C)(=O)=O)c1ccc(N2Cc3ccccc3C2=O)cc1` (centres unmarked) [ALB-111744], the maximal fold induction under setting [2] was 1.14.

Regarding `O=C(O)Cc1ccc(N2Cc3ccccc3C2=O)cc1` [ALB-112235], the maximal fold induction under setting [2] is 0.941.

Turning to `CC(C)c1ccc(N2Cc3ccc(N4CCOCC4)cc3C2=O)cc1` [ALB-116368], the maximal fold induction under setting [2] was 1.08.

Under setting [1], `CCCNC(=O)Nc1ccc2c(c1)C(=O)N(c1ccc(C(C)C)cc1)C2` [ALB-118415] returned an EC50 of 13200 nM. Further, under setting [3], the maximal fold induction turned out to be 1.4.

On to `CC(C(=O)OC(C)(C)C)c1ccc(N2Cc3c(Br)cccc3C2=O)cc1` (centres unmarked) [ALB-112064], for which, under setting [2], the maximal fold induction is 1.04.

Turning to `Cc1ccc(-c2cc(C(C)C(=O)OC(C)(C)C)ccc2N2Cc3ccccc3C2=O)cc1` (centres unmarked) [ALB-112081], the maximal fold induction under setting [2] came out at 1.03.

For the compound `COc1ccc(C(=O)Nc2ccc3c(c2)C(=O)N(c2ccc(C(C)C(=O)OC(C)(C)C)cc2)C3)cc1` (centres unmarked) [ALB-111954], under setting [2], the maximal fold induction is 1.04.

Take `CC(C(=O)O)c1ccc(N2Cc3cc(-c4ccc(Cl)c(Cl)c4)ccc3C2=O)cc1` (centres unmarked) [ALB-111885]: under setting [2], the maximal fold induction came to 1.09.

The compound `CC(C(=O)OC(C)(C)C)c1ccc(N2Cc3cc(Br)ccc3C2=O)cc1` (centres unmarked) [ALB-111853] had an EC50 under setting [1] of 21400 nM. For the same compound, the maximal fold induction under setting [2] came out at 1.1.

Take `C/C=C\c1ccc2c(c1)C(=O)N(c1ccc(C(C)C(=O)OC(C)(C)C)cc1)C2` (centres unmarked) [ALB-113000]: under setting [1], the half-maximal effective concentration (EC50) worked out at 3740 nM. In addition, the maximal fold induction under setting [2] stood at 1.31.

In turn, `C=Cc1ccc2c(c1)C(=O)N(c1ccc(C(C)COC)cc1)C2` (centres unmarked) [ALB-115327] returned an EC50 under setting [1] of 76 nM. Further, the maximal fold induction under setting [2] was determined as 1.43.

In the case of `CC(C(=O)O)c1ccc(N2Cc3ccc(-c4ccc(Cl)cc4)cc3C2=O)cc1` (centres unmarked) [ALB-112449], the maximal fold induction under setting [2] worked out at 1.16.

As to `COCC(C)(C)c1ccc(N2Cc3ccccc3C2=O)cc1` [ALB-115427], the maximal fold induction under setting [2] came out at 1.31.

Consider `CCCC(C)(C(=O)O)c1ccc(N2Cc3ccccc3C2=O)cc1` (centres unmarked) [ALB-111857], for which, under setting [2], the maximal fold induction was found to be 1.07.

Consider `CC(C(=O)O)c1ccc(N2Cc3ccccc3C2=O)c(-c2ccc(Cl)c(Cl)c2)c1` (centres unmarked) [ALB-112161], for which the maximal fold induction under setting [2] worked out at 1.1.

Consider `CC(C(=O)OC(C)(C)C)c1ccc(N2Cc3cccc(-c4ccc(Cl)c(Cl)c4)c3C2=O)cc1` (centres unmarked) [ALB-112149], for which the maximal fold induction under setting [2] came to 1.06.

As for `CC(C(=O)O)c1ccc(N2Cc3cc(NS(C)(=O)=O)ccc3C2=O)cc1` (centres unmarked) [ALB-113647], the maximal fold induction under setting [3] was found to be 1.11.

`CC(C(=O)O)c1ccc(N2Cc3cc(F)ccc3C2=O)cc1` (centres unmarked) [ALB-113754] showed an EC50 under setting [1] of 142 nM. Moreover, under setting [2], the maximal fold induction was 1.7.

Regarding `COc1ccc(-c2cc(N3Cc4ccccc4C3=O)ccc2C(C)C(=O)OC(C)(C)C)cc1` (centres unmarked) [ALB-112001], the maximal fold induction under setting [2] was 1.02.

As for `CCCOc1ccc2c(c1)C(=O)N(c1ccc(C(C)C)cc1)C2` [ALB-116075], under setting [1], it took 188 nM to reach a half-maximal effect (EC50). In addition, under setting [2], the maximal fold induction stood at 1.26.

In the case of `CCCCc1cccc2c1C(=O)N(c1ccc(C(C)C(=O)O)cc1)C2` (centres unmarked) [ALB-113757], the maximal fold induction under setting [2] is 1.18.

Take `CC(C)c1ccc2c(c1)CN(c1ccc(C(C)C(=O)O)cc1)C2=O` (centres unmarked) [ALB-113561]: under setting [2], the maximal fold induction came out at 1.21.

Under setting [1], `COc1ccc2c(c1)CN(c1ccc(C(C)C)cc1)C2=O` [ALB-117453] registered an EC50 of 180 nM. In addition, under setting [2], the maximal fold induction stood at 1.28.

In turn, `CCc1ccc2c(c1)C(=O)N(c1ccc(C(C)COC)cc1)C2` (centres unmarked) [ALB-115328] displayed an EC50 under setting [1] of 298 nM. In addition, the maximal fold induction under setting [2] came out at 1.5.

`CC(C(=O)O)c1ccc(N2Cc3ccc(CN(C)C)cc3C2=O)cc1` (centres unmarked) [ALB-114608]: the maximal fold induction under setting [2] came to 1.23.

`CC(C)(C)c1ccc(N2Cc3ccc(OC(F)F)cc3C2=O)cc1` [ALB-119043] gave an EC50 under setting [1] of 992 nM. Besides, the maximal fold induction under setting [3] stood at 1.39.

Take `COc1cc2c(c(OC)c1)C(=O)N(c1ccc(C(C)C)cc1)C2` [ALB-118034]: a half-maximal response under setting [1] (EC50) required 447 nM. Besides, under setting [2], the maximal fold induction was determined as 1.3.

Take `CC(C(=O)O)c1ccc(N2Cc3ccccc3C2=O)cc1-c1cccnc1` (centres unmarked) [ALB-112199]: the maximal fold induction under setting [2] was determined as 1.08.

Consider `CC(C(=O)OC(C)(C)C)c1ccc(N2Cc3ccccc3C2=O)c(-c2cncnc2)c1` (centres unmarked) [ALB-112194], for which the maximal fold induction under setting [2] stood at 1.1.

As for `CC(C(=O)OC(C)(C)C)c1ccc(N2Cc3ccccc3C2=O)cc1-c1ccccc1` (centres unmarked) [ALB-112197], under setting [2], the maximal fold induction was 1.07.

Compound `Cc1ccc2c(c1)CN(c1ccc(C(C)C(=O)O)cc1)C2=O` (centres unmarked) [ALB-112556] yielded an EC50 under setting [1] of 146 nM. In addition, under setting [2], the maximal fold induction stood at 1.56.

Under setting [1], `CC(C(=O)O)c1ccc(N2Cc3cccc(Br)c3C2=O)cc1` (centres unmarked) [ALB-112067] had an EC50 of 9710 nM. Besides, the maximal fold induction under setting [2] is 1.36.
